From patent publication US20240308996A1, “PYRIDOPYRIDINES AND DERIVATIVES THEREOF AS SELECTIVE KINASE INHIBITORS” (University of Sharjah, priority 2023, published 2024)

Experiments:
Assay type in all cases: cell-based
[1] = system: CCRF-CEM; test: NCI-60 cell line panel: CCRF-CEM; details: Leukemia
Description: (§1) It was carried out at the NCI, Bethesda, MD, USA, utilizing their standard protocol.

[2] = system: HL-60(TB); test: NCI-60 cell line panel: HL-60(TB); design: TGI: unit not given here; details: Leukemia
Description: as §1

[3] = system: SR; test: NCI-60 cell line panel: SR; details: Leukemia
Description: as §1

[4] = system: EKVX; test: NCI-60 cell line panel: EKVX; details: Non-Small Cell Lung Cancer
Description: as §1

[5] = system: NCI-H226; test: NCI-60 cell line panel: NCI-H226; details: Non-Small Cell Lung Cancer
Description: as §1

[6] = system: NCI-H23; test: NCI-60 cell line panel: NCI-H23; details: Non-Small Cell Lung Cancer
Description: as §1

[7] = system: COLO 205; test: NCI-60 cell line panel: COLO 205; design: TGI: unit not given here; details: Colon Cancer
Description: as §1

[8] = system: HCC-2998; test: NCI-60 cell line panel: HCC-2998; details: Colon Cancer
Description: as §1

[9] = system: HCT-15; test: NCI-60 cell line panel: HCT-15; details: Colon Cancer
Description: as §1

[10] = system: HT29; test: NCI-60 cell line panel: HT29
Description: as §1

[11] = system: KM12; test: NCI-60 cell line panel: KM12; details: Colon Cancer
Description: as §1

[12] = system: SNB-19; test: NCI-60 cell line panel: SNB-19; details: CNS Cancer
Description: as §1

[13] = system: SNB-75; test: NCI-60 cell line panel: SNB-75; design: TGI: unit not given here; details: CNS Cancer
Description: as §1

[14] = system: U251; test: NCI-60 cell line panel: U251; design: TGI: unit not given here
Description: as §1

[15] = system: MALME-3M; test: NCI-60 cell line panel: MALME-3M; details: Melanoma
Description: as §1

[16] = system: SK-MEL-2; test: NCI-60 cell line panel: SK-MEL-2; design: TGI: unit not given here; details: Melanoma
Description: as §1

[17] = system: SK-MEL-28; test: NCI-60 cell line panel: SK-MEL-28; details: Melanoma
Description: as §1

[18] = system: SK-MEL-5; test: NCI-60 cell line panel: SK-MEL-5; details: Melanoma
Description: as §1

[19] = system: UACC-62; test: NCI-60 cell line panel: UACC-62; details: Melanoma
Description: as §1

[20] = system: OVCAR-3; test: NCI-60 cell line panel: OVCAR-3; details: Ovarian Cancer
Description: as §1

[21] = system: OVCAR-5; test: NCI-60 cell line panel: OVCAR-5; details: Ovarian Cancer
Description: as §1

[22] = system: OVCAR-8; test: NCI-60 cell line panel: OVCAR-8; details: Ovarian Cancer
Description: as §1

[23] = system: NCI/ADR-RES; test: NCI-60 cell line panel: NCI/ADR-RES; design: TGI: unit not given here; details: Ovarian Cancer
Description: as §1

[24] = system: 786-0; test: NCI-60 cell line panel: 786-0; details: Renal Cancer
Description: as §1

[25] = system: A498; test: NCI-60 cell line panel: A498; details: Renal Cancer
Description: as §1

[26] = system: ACHN; test: NCI-60 cell line panel: ACHN; details: Renal Cancer
Description: as §1

[27] = system: RXF 393; test: NCI-60 cell line panel: RXF 393; details: Renal Cancer
Description: as §1

[28] = system: SN12C; test: NCI-60 cell line panel: SN12C; details: Renal Cancer
Description: as §1

[29] = system: MCF7; test: NCI-60 cell line panel: MCF7; details: Breast Cancer
Description: as §1

[30] = system: MDA-MB-231/ATCC; test: NCI-60 cell line panel: MDA-MB-231/ATCC; details: Breast Cancer
Description: as §1

[31] = system: HS 578T; test: NCI-60 cell line panel: HS 578T
Description: as §1

[32] = system: BT-549; test: NCI-60 cell line panel: BT-549; details: Breast Cancer
Description: as §1

[33] = system: Hep3B; test: MTT assay, Hep3B HCC cell line; details: Homo sapiens, 48 h, mean of triplicate assays ± SEM
Description: Two HCC cell lines (Hep3B and HepG2) were used for screening the antiproliferative activity of the synthesized compounds. The cell lines were obtained from the European Collection of Cell Cultures (ECACC, UK) and maintained in Dulbecco's Modified Eagle Medium (DMEM: Sigma-Aldrich) supplemented with 10% fetal bovine serum (FBS) and 1% penicillin/streptomycin and incubated at 37° C. in a 5% CO2 air atmosphere. In addition, WI-38 normal cell line was used to investigate the safety of these compounds.
MTT assay was conducted to calculate the IC50 of the compounds following the reported procedure . Briefly, the cells were seeded in 96-well tissue culture plates with a density of 5×10^4 cells/well and incubated overnight at 37° C. in a 5% CO2 air atmosphere. […] DMSO was used as a negative control. After 48 h, the media were aspirated, and replaced with media containing 0.5 mg/mL of MTT tetrazolium dye (Sigma-Aldrich) for 2 h at 37° C. Finally, the media were removed and 200 μL of DMSO was added to solubilize the formazan crystals. Absorbance was then measured at 570 nm using Varioskan Flash multimode plate reader (Thermo Scientific, Massachusetts, USA).

[34] = total growth inhibition, in µM (unit assumed)

CC(C)NC(=O)c1cc(-c2ccc(NC(=O)Nc3ccc(N4CCN(C)CC4)c(C(F)(F)F)c3)cc2)nc2cccnc12 [Compound 13e, N-Isopropyl-2-(4-(3-(4-(4-methylpiperazin-1-yl)-3-(trifluoromethyl)phenyl)ureido)phenyl)-1,5-naphthyridine-4-carboxamide]
IC50 ([1]; Homo sapiens): 0.74 µM
TGI ([1]; total growth inhibition): 1.98 µM
IC50 ([2]; Homo sapiens): 0.77 µM
TGI ([2]; total growth inhibition): 2.12
IC50 ([3]; Homo sapiens): 1 µM
TGI ([3]; total growth inhibition): 3.19 µM
IC50 ([4]; Homo sapiens): 0.77 µM
TGI [4, 34]: 1.49
IC50 ([5]; Homo sapiens): 5.6 µM
TGI ([5]; total growth inhibition): 14.7 µM
IC50 ([6]; Homo sapiens): 0.73 µM
TGI ([6]; total growth inhibition): 1.46 µM
TGI ([7]; total growth inhibition): 1.86
IC50 ([7]; Homo sapiens): 0.85 µM
TGI ([8]; total growth inhibition): 1.36 µM
IC50 ([8]; Homo sapiens): 0.7 µM
TGI ([9]; total growth inhibition): 1.41 µM
IC50 ([9]; Homo sapiens): 0.7 µM
TGI ([10]; Colon Cancer, total growth inhibition): 1.37 µM
IC50 ([10]; Homo sapiens, HT-29, Colon Cancer): 0.67 µM
TGI ([11]; total growth inhibition): 1.66 µM
IC50 ([11]; Homo sapiens): 0.8 µM
TGI ([12]; total growth inhibition): 1.56 µM
IC50 ([12]; Homo sapiens): 0.73 µM
TGI ([13]; total growth inhibition): 3.97
IC50 ([13]; Homo sapiens): 0.59 µM
TGI ([14]; CNS Cancer, total growth inhibition): 1.34
IC50 ([14]; Homo sapiens, U-251, CNS Cancer): 0.67 µM
IC50 ([15]; Homo sapiens): 0.64 µM
TGI [15, 34]: 1.18
IC50 ([16]; Homo sapiens): 1 µM
TGI ([16]; total growth inhibition): 2.60
IC50 ([17]; Homo sapiens): 0.64 µM
TGI ([17]; total growth inhibition): 1.17 µM
IC50 ([18]; Homo sapiens): 0.67 µM
TGI ([18]; total growth inhibition): 1.21 µM
IC50 ([19]; Homo sapiens): 0.66 µM
TGI ([19]; total growth inhibition): 1.24 µM
IC50 ([20]; Homo sapiens): 0.65 µM
TGI ([20]; total growth inhibition): 1.33 µM
IC50 ([21]; Homo sapiens): 0.65 µM
TGI ([21]; total growth inhibition): 1.23 µM
IC50 ([22]; Homo sapiens): 0.84 µM
TGI [22, 34]: 1.95
IC50 ([23]; Homo sapiens): 1.17 µM
TGI ([23]; total growth inhibition): 3.71
IC50 ([24]; Homo sapiens): 0.53 µM
TGI ([24]; total growth inhibition): 1.1 µM
IC50 ([25]; Homo sapiens): 4.71 µM
TGI ([25]; total growth inhibition): 9.61 µM
IC50 ([26]; Homo sapiens): 0.64 µM
TGI ([26]; total growth inhibition): 1.18 µM
IC50 ([27]; Homo sapiens): 0.51 µM
TGI ([27]; total growth inhibition): 1.11 µM
IC50 ([28]; Homo sapiens): 0.68 µM
TGI ([28]; total growth inhibition): 1.26 µM
TGI ([29]; total growth inhibition): 1.3 µM
IC50 ([29]; Homo sapiens): 0.65 µM
TGI ([30]; total growth inhibition): 1.26 µM
IC50 ([30]; Homo sapiens): 0.67 µM
TGI ([31]; Breast Cancer, HS 578T, total growth inhibition): 2.19 µM
IC50 ([31]; Homo sapiens, Hs-578T): 0.71 µM
TGI ([32]; total growth inhibition): 7.41 µM
IC50 ([32]; Homo sapiens): 2.1 µM
IC50 [33]: 1.76 ± 0.01 µM
